The results in this text go back to patent US20210220328A1, “PYRROLE DERIVATIVES AS ACC INHIBITORS” (Almirall, S.A., priority 2017, published 2021).

The test relates to immortalized human sebocyte cell line, SZ95. The experiment in a line: In vitro assay of inhibition of lipid synthesis. The class given is cell-based. The following applies: 48 h, SZ95 sebocytes. The procedure:
In Vitro Assay of Inhibition of Lipid Synthesis
To evaluate the inhibition of lipid synthesis, the immortalized human sebocyte cell line, SZ95 (stablished by Zouboulis, C. C. et al J Invest Dermatol 1999; 113:1011-20), was treated with arachidonic acid (AA) in presence or absence of compound. Lipids were detected by using a lipid sensing fluorophore.
Compounds were dissolved in dimethylsulfoxide (DMSO) 100%. Then the stocks were serial diluted 1/3 in DMSO 100%, and this battery of solutions were diluted 1/10 in culture medium, to minimize the percentage of the DMSO over cells.
10 k cells were plated in 384 well microtiter plates and incubated at 37° C. and 5% CO2 in DMEM/F12 supplemented with 10% FBS, 1.25 ng/ml of rhEGF and GA-1000 before of compound and stimulus addition. After 24 h, compounds dissolved in culture media were added over cells, diluting the solutions prepared 1/40 in the final volume of the assay. Then, cells and compounds were preincubated for 30 min at 37° C. and 5% CO2. After this prior incubation, the lipid synthesis was induced by 75 μM of AA final solution, preparing a solution 10× in culture media. Finally, SZ95 treated were incubated for 48 h at 37° C. and 5% CO2.
Neutral lipids were measured using AdipoRed™, purchased from LONZA. To do that, cells were washed with PBS and incubated with a solution of AdipoRed™ (final dilution 1/80 in PBS) for 30 min at room temperature. After the staining process, the fluorescence intensity (FI) was quantified using a fluorescence plate reader (excitation 485 nm; emission 535).
Activity of compounds were calculated as % of inhibition considering the maximal fluorescence for AA-stimulated cells and the minimum fluorescence for unstimulated cells as controls.

Where [1] appears, read: 75 μM arachidonic acid, AdipoRed, Table 2, finer classes for compounds with IC50 less than 250 nM.
Where [2] appears, read: lipid synthesis induced by 75 μM arachidonic acid, AdipoRed fluorescence, Table 1.

The term IC50 denotes the concentration needed to halve the response being measured. Read a high IC50 as lower potency. Turning to `CCCCCCCCCCCCOc1c[nH]c(C(=O)OC(C)OC(=O)OCCCO)c1Cl` (stereo not drawn) [Example 87, 1-(((3-Hydroxypropoxy)carbonyl)oxy)ethyl 3-chloro-4-(dodecyloxy)-1H-pyrrole-2-carboxylate], the IC50 was less than 50 nM under setting [1] and less than 250 nM under setting [2].
For `CCCCCCCCCCCCOc1c[nH]c(C(=O)OC(C)OC(=O)OCCOCCOCC)c1Cl` (stereo not drawn) [Example 86, 4-Oxo-3,5,8,11-tetraoxatridecan-2-yl 3-chloro-4-(dodecyloxy)-1H-pyrrole-2-carboxylate], in that order: less than 50 nM and less than 250 nM.
Molecule `CCCCCCCCCCCCOc1c[nH]c(C(=O)OCC)c1` [Example 2, Ethyl 4-(dodecyloxy)-1H-pyrrole-2-carboxylate] had an IC50 under setting [2] of more than 5000 nM.
Molecule `CCCCCCCCCCCCCCOc1c[nH]c(C(=O)O)c1Cl` [Example 90, 3-Chloro-4-(tetradecyloxy)-1H-pyrrole-2-carboxylic acid] showed an IC50 under setting [1] of 50 to 100 nM and a half-maximal inhibitory concentration (IC50) under setting [2] of less than 250 nM.
Turning to `CCCCCCCCCCCCCc1c[nH]c(C(=O)OCCCCCCCCO)c1F` [Example 38, 8-Hydroxyoctyl 3-fluoro-4-tridecyl-1H-pyrrole-2-carboxylate], the IC50 under setting [2] was 250 to 1000 nM.
Molecule `CCCCCCCCCCCCCc1c[nH]c(C(=O)OC(C)OC(=O)OCCOCCOCC)c1Cl` (stereo not drawn) [Example 112, 4-Oxo-3,5,8,11-tetraoxatridecan-2-yl 3-chloro-4-tridecyl-1H-pyrrole-2-carboxylate] displayed an IC50 under setting [1] of 100 to 250 nM and an IC50 under setting [2] of less than 250 nM.
For `CCCCCCCCCCCCCCc1c[nH]c(C(=O)O)c1F` [Example 52, 3-Fluoro-4-tetradecyl-1H-pyrrole-2-carboxylic acid], in that order: less than 50 nM and less than 250 nM.
For `CCCCCCCCCCCCc1cc(Cl)c(C(=O)OC(C)OC(=O)OCCOCCOCC)[nH]1` (stereo not drawn) [Example 117, 4-Oxo-3,5,8,11-tetraoxatridecan-2-yl 3-chloro-5-dodecyl-1H-pyrrole-2-carboxylate] the same measures were 100 to 250 nM and less than 250 nM.
For `CCCCCCCCCCCCCc1c[nH]c(C(=O)OCCN2CCCC2=O)c1F` [Example 29, 2-(2-Oxopyrrolidin-1-yl)ethyl 3-fluoro-4-tridecyl-1H-pyrrole-2-carboxylate], in that order: 100 to 250 nM and less than 250 nM.
For the molecule `CCCCCCCCCCCCc1c[nH]c(C(=O)OCCOCCOCC)c1F` [Example 16, 2-(2-Ethoxyethoxy)ethyl 4-dodecyl-3-fluoro-1H-pyrrole-2-carboxylate], the IC50 reads like this: under setting [1], 50 to 100 nM; under setting [2], less than 250 nM.
Regarding `CCCCCCCCCCCCc1cc(Cl)c(C(=O)OCC(F)(F)F)[nH]1` [Example 113, 2,2,2-Trifluoroethyl 3-chloro-5-dodecyl-1H-pyrrole-2-carboxylate], under setting [2], the IC50 was 1000 to 5000 nM.
As to `CCCCCCCCCCCCc1c[nH]c(C(=O)OC(C)OC(=O)OCCOC)c1F` (stereo not drawn) [Example 18, 1-(((2-Methoxyethoxy)carbonyl)oxy)ethyl 4-dodecyl-3-fluoro-1H-pyrrole-2-carboxylate], the half-inhibitory concentration (IC50) by setting is: under setting [1], 100 to 250 nM; under setting [2], less than 250 nM.
Consider `CCCCCCCCCCCCCc1cc(Cl)c(C(=O)O)[nH]1` [Example 66, 3-Chloro-5-tridecyl-1H-pyrrole-2-carboxylic acid], for which the IC50 is 100 to 250 nM under setting [1] and less than 250 nM under setting [2].
For `CCCCCCCCCCCCCc1c[nH]c(C(=O)OCC(O)CO)c1F` (stereo not drawn) [Example 40, 2,3-Dihydroxypropyl 3-fluoro-4-tridecyl-1H-pyrrole-2-carboxylate], in that order: less than 50 nM and less than 250 nM.
For `CCCCCCCCCCCCOc1c[nH]c(C(=O)O)c1Cl` [Example 80, 3-Chloro-4-(dodecyloxy)-1H-pyrrole-2-carboxylic acid], in that order: less than 50 nM and less than 250 nM.
For `CCCCCCCCCCCCCc1c[nH]c(C(=O)OCc2ccccc2)c1F` [Example 26, Benzyl 3-fluoro-4-tridecyl-1H-pyrrole-2-carboxylate] the same measures were 100 to 250 nM and less than 250 nM.
In turn, `CCCCCCCCCCCCc1cc(C#N)c(C(=O)O)[nH]1` [Example 129, 3-Cyano-5-dodecyl-1H-pyrrole-2-carboxylic acid] gave a half-inhibitory concentration (IC50) under setting [2] of 1000 to 5000 nM.
Consider `CCCCCCCCCCCc1c[nH]c(C(=O)O)c1F` [Example 13, 3-Fluoro-4-undecyl-1H-pyrrole-2-carboxylic acid], for which the IC50 under setting [1] is less than 50 nM and the IC50 under setting [2] is less than 250 nM.
For `CCCCCCCCCCCc1cc(Cl)c(C(=O)O)[nH]1` [Example 64, 3-Chloro-5-undecyl-1H-pyrrole-2-carboxylic acid], in that order: 50 to 100 nM and less than 250 nM.
For `CCCCCCCCCCC(C)(C)Cc1cc(Cl)c(C(=O)O)[nH]1` [Example 127, 3-Chloro-5-(2,2-dimethyldodecyl)-1H-pyrrole-2-carboxylic acid], in that order: less than 50 nM and 250 to 1000 nM.
In the case of `CCCCCCCCCCCCCc1c[nH]c(C(=O)OC(C)OC(=O)OC(C)C)c1Cl` (stereo not drawn) [Example 110, 1-((Isopropoxycarbonyl)oxy)ethyl 3-chloro-4-tridecyl-1H-pyrrole-2-carboxylate], the IC50 was 100 to 250 nM under setting [1] and less than 250 nM under setting [2].
For `CCCCCCCCCCCCc1c[nH]c(C(=O)OC(C)OC(=O)OC(C)C)c1F` (stereo not drawn) [Example 17, 1-((Isopropoxycarbonyl)oxy)ethyl 4-dodecyl-3-fluoro-1H-pyrrole-2-carboxylate] the same measures were less than 50 nM and less than 250 nM.
With `CCCCCCCCCCCCCc1c[nH]c(C(=O)OCC(F)(F)F)c1Cl` [Example 108, 2,2,2-Trifluoroethyl 3-chloro-4-tridecyl-1H-pyrrole-2-carboxylate], the IC50 under setting [2] is 250 to 1000 nM.
Turning to `CCCCCCCCCCCC(F)Cc1c[nH]c(C(=O)O)c1F` (stereo not drawn) [Example 93, 3-Fluoro-4-(2-fluorotridecyl)-1H-pyrrole-2-carboxylic acid], the IC50 by setting is: under setting [1], less than 50 nM; under setting [2], less than 250 nM.
For `CCCCCCCCCCc1c[nH]c(C(=O)O)c1Cl` [Example 56, 3-Chloro-4-decyl-1H-pyrrole-2-carboxylic acid] the same measures were 50 to 100 nM and less than 250 nM.
For `CCCCCCCCCCCCCc1c[nH]c(C(=O)OC(C)OC(=O)OCc2ccccc2)c1F` (stereo not drawn) [Example 48, 1-(((Benzyloxy)carbonyl)oxy)ethyl 3-fluoro-4-tridecyl-1H-pyrrole-2-carboxylate], in that order: less than 50 nM and less than 250 nM.
For `CCCCCCCCCCCCCCCc1c[nH]c(C(=O)O)c1F` [Example 53, 3-Fluoro-4-pentadecyl-1H-pyrrole-2-carboxylic acid] the same measures were less than 50 nM and less than 250 nM.
Molecule `CCCCCCCCCCCCCCCc1cc(F)c(C(=O)O)[nH]1` [Example 122, 3-Fluoro-5-pentadecyl-1H-pyrrole-2-carboxylic acid] registered an IC50 under setting [1] of 50 to 100 nM and an IC50 under setting [2] of less than 250 nM.
Regarding `CCCCCCCCCCCCCCCCCCc1cc(F)c(C(=O)O)[nH]1` [Example 125, 3-Fluoro-5-octadecyl-1H-pyrrole-2-carboxylic acid], under setting [2], the IC50 was less than 250 nM.
Take `CCCCCCCCCCCCOc1c[nH]c(C(=O)OC(C)OC(=O)OC(C)C)c1Cl` (stereo not drawn) [Example 85, 1-((Isopropoxycarbonyl)oxy)ethyl 3-chloro-4-(dodecyloxy)-1H-pyrrole-2-carboxylate]: the half-maximal inhibitory concentration (IC50) was less than 50 nM under setting [1] and less than 250 nM under setting [2].
Under setting [2], `CCCCCCCCCCCCOc1c[nH]c(C(=O)OCC(=O)N(C)CC(=O)OCC)c1` [Example 9, 2-((2-Ethoxy-2-oxoethyl)(methyl)amino)-2-oxoethyl 4-(dodecyloxy)-1H-pyrrole-2-carboxylate] registered an IC50 of 1000 to 5000 nM.
Still for that read-out and setting: the value for `CCCCCCCCCCCCCc1c[nH]c(C(=O)OCCOCCOCC)c1Cl` [Example 109, 2-(2-Ethoxyethoxy)ethyl 3-chloro-4-tridecyl-1H-pyrrole-2-carboxylate] was 250 to 1000 nM.
Turning to `CCCCCCCCCCCCCCCCc1c[nH]c(C(=O)O)c1F` [Example 132, 3-Fluoro-4-hexadecyl-1H-pyrrole-2-carboxylic acid], the IC50 reads like this: under setting [1], less than 50 nM; under setting [2], less than 250 nM.
For `CCCCCCCCCCCCOc1c[nH]c(C(=O)OC(C)OC(=O)OC(C)C)c1` (stereo not drawn) [Example 8, 1-((Isopropoxycarbonyl)oxy)ethyl 4-(dodecyloxy)-1H-pyrrole-2-carboxylate] the same measures were 100 to 250 nM and less than 250 nM.
`CCCCCCCCCCCCOc1c[nH]c(C(=O)O)c1` [Example 1, 4-(Dodecyloxy)-1H-pyrrole-2-carboxylic acid] showed an IC50 under setting [2] of 250 to 1000 nM.
The same measure, in the same setting: as for `CCCCCCCCCCCCOc1c[nH]c(C(=O)OCCO)c1` [Example 6, 2-Hydroxyethyl 4-(dodecyloxy)-1H-pyrrole-2-carboxylate], the figure is 1000 to 5000 nM; as for `CCCCCCCCCCCCCc1c[nH]c(C(=O)OC)c1F` [Example 22, Methyl 3-fluoro-4-tridecyl-1H-pyrrole-2-carboxylate], 1000 to 5000 nM.
